Here are results for five compounds from ChEMBL document CHEMBL5584308, “Total Synthesis and Anti-inflammatory Activity of Asperjinone and Asperimide C” (J Nat Prod, 2024).

Calls of active or inactive are those of the source. No cut-off for these calls is given here.

Data set [1] deals with RPTEC. Put plainly: Effect on COX-2 gene expression in human RPTEC cells at 26 uM incubated for 24 hrs by qPCR analysis. Type of data set: functional, cell-based. (Quantitative PCR measures a nucleic acid by following its amplification.)
Data set [2] concerns RPTEC. The data set is described as follows: Effect on total NO level in human RPTEC cells at 26 uM incubated for 24 hrs by microplate reader analysis. Type of data set: functional, cell-based.
Data set [3] relates to RPTEC. The data set is described as follows: Effect on nitrate level in LPS-induced human RPTEC cells at 26 uM incubated for 24 hrs by microplate reader analysis. Type of data set: functional, cell-based.
The test system of data set [4] is RPTEC. The data set is described as follows: Cytotoxicity against human RPTEC cells assessed as reduction in cell viability at 26 uM incubated for 24 hrs in presence of LPS by MTT assay. The format is toxicity, cell-based. A general note: Formazan colour is commonly taken as a measure of viable cells.
Data set [5] relates to RPTEC. Put plainly: Effect on nitrite level in human RPTEC cells at 26 uM incubated for 24 hrs by microplate reader analysis. Type of data set: functional, cell-based.
Data set [6] concerns RPTEC. Put plainly: Effect on nitrate level in human RPTEC cells at 26 uM incubated for 24 hrs by microplate reader analysis. Type of data set: functional, cell-based.
Data set [7] concerns RPTEC. Put plainly: Cytotoxicity against human RPTEC cells assessed as reduction in cell viability at 26 uM incubated for 24 hrs in absence of LPS by MTT assay. Type of data set: toxicity, cell-based.
Data set [8] deals with RPTEC. Put plainly: Antiinflammatory activity in LPS-induced human RPTEC cells assessed as decrease in IL-1beta gene expression at 26 uM incubated for 24 hrs by qPCR analysis relative to control. Also on record: scale not given: the % may be the effect or the level left. Type of data set: functional.
Data set [9] deals with RPTEC. Put plainly: Effect on IL-1beta gene expression in human RPTEC cells at 26 uM incubated for 24 hrs by qPCR analysis. Type of data set: functional, cell-based.
For data set [10], the system named is RPTEC. The data set is described as follows: Antiinflammatory activity against LPS-induced human RPTEC cells assessed as reduction in total NO level at 26 uM incubated for 24 hrs by microplate reader analysis relative to control. The format is functional. Also on record: scale not given: the % may be the effect or the level left.
Data set [11] has as its system RPTEC. The data set is described as follows: Effect on IL-6 gene expression in human RPTEC cells at 26 uM incubated for 24 hrs by qPCR analysis. Type of data set: functional, cell-based.
Data set [12] deals with RPTEC. Put plainly: Antiinflammatory activity in LPS-induced human RPTEC cells assessed as decrease in IL6 gene expression at 26 uM incubated for 24 hrs by qPCR analysis relative to control. The format is functional. Details: scale not given: the % may be the effect or the level left.
The test system of data set [13] is RPTEC. Put plainly: Antiinflammatory activity against LPS-induced human RPTEC cells assessed as reduction in COX-2 gene expression at 26 uM incubated for 24 hrs by qPCR analysis relative to control. Type of data set: functional. Details: scale not given: the % may be the effect or the level left.
Data set [14] concerns RPTEC. The data set is described as follows: Antiinflammatory activity against LPS-induced human RPTEC cells assessed as reduction in nitrite level at 26 uM incubated for 24 hrs by microplate reader analysis relative to control. Also on record: scale not given: the % may be the effect or the level left. Type of data set: functional.
The subject of data set [15] is RPTEC. The data set is described as follows: Effect on iNOS gene expression in human RPTEC cells at 26 uM incubated for 24 hrs by qPCR analysis. Type of data set: functional, cell-based.
The subject of data set [16] is RPTEC. Put plainly: Antiinflammatory activity in LPS-induced human RPTEC cells assessed as downregulation of TNFalpha gene expression at 26 uM incubated for 24 hrs by qPCR analysis relative to control. Type of data set: functional.
Data set [17] has as its system RPTEC. Put plainly: Antiinflammatory activity against LPS-induced human RPTEC cells assessed as reduction in iNOS gene expression at 26 uM incubated for 24 hrs by qPCR analysis relative to control. The format is functional. Also on record: scale not given: the % may be the effect or the level left.
The test system of data set [18] is RAW264.7. Put plainly: Inhibition of NO production in LPS-induced mouse RAW264.7 cells incubated for 24 hrs by absorbance based assay. Type of data set: functional, cell-based. Particulars: RAW264.7, 24 h.
For data set [19], the system named is RPTEC. Put plainly: Antiinflammatory activity against LPS-induced human RPTEC cells assessed as reduction in iNOS gene expression at 28 uM incubated for 24 hrs by qPCR analysis relative to control. The format is functional. Also on record: scale not given: the % may be the effect or the level left.
Data set [20] has as its system RPTEC. The data set is described as follows: Antiinflammatory activity against LPS-induced human RPTEC cells assessed as reduction in nitrite level at 28 uM incubated for 24 hrs by microplate reader analysis relative to control. Type of data set: functional. Also on record: scale not given: the % may be the effect or the level left.
In data set [21] the test system is RPTEC. The data set is described as follows: Effect on nitrate level in LPS-induced human RPTEC cells at 28 uM incubated for 24 hrs by microplate reader analysis. Type of data set: functional, cell-based.
Data set [22] concerns RPTEC. Put plainly: Antiinflammatory activity in LPS-induced human RPTEC cells assessed as downregulation of TNFalpha gene expression at 28 uM incubated for 24 hrs by qPCR analysis relative to control. Type of data set: functional.
Data set [23] concerns RPTEC. Put plainly: Antiinflammatory activity in LPS-induced human RPTEC cells assessed as decrease in IL6 gene expression at 28 uM incubated for 24 hrs by qPCR analysis relative to control. The format is functional. Details: scale not given: the % may be the effect or the level left.
Data set [24] concerns RPTEC. Put plainly: Effect on COX-2 gene expression in human RPTEC cells at 28 uM incubated for 24 hrs by qPCR analysis. The format is functional, cell-based.
Data set [25] relates to RPTEC. Put plainly: Antiinflammatory activity against LPS-induced human RPTEC cells assessed as reduction in COX-2 gene expression at 28 uM incubated for 24 hrs by qPCR analysis relative to control. Details: scale not given: the % may be the effect or the level left. The format is functional.
Data set [26] in a line: Downregulation of TNF-alpha gene expression in human RPTEC cells at 28 uM incubated for 24 hrs by qPCR analysis relative to control. Type of data set: functional.
Data set [27] has as its system RPTEC. Put plainly: Antiinflammatory activity in LPS-induced human RPTEC cells assessed as decrease in IL-1beta gene expression at 28 uM incubated for 24 hrs by qPCR analysis relative to control. The format is functional. Details: scale not given: the % may be the effect or the level left.
The nature of data set [28]: Downregulation of TNF-alpha gene expression in human RPTEC cells at 26 uM incubated for 24 hrs by qPCR analysis relative to control. Type of data set: functional.
The nature of data set [29]: Downregulation of COX-2 gene expression in human RPTEC cells at 26 uM incubated for 24 hrs by qPCR analysis relative to control. Type of data set: functional.
Data set [30] in a line: Downregulation of IL-1beta gene expression in human RPTEC cells at 26 uM incubated for 24 hrs by qPCR analysis relative to control. The format is functional.
Data set [31] has as its system RPTEC. The data set is described as follows: Upregulation of IL-6 gene expression in human RPTEC cells at 26 uM incubated for 24 hrs by qPCR analysis. Type of data set: functional, cell-based.
Data set [32] relates to RPTEC. The data set is described as follows: Upregulation of IL-1beta gene expression in human RPTEC cells at 26 uM incubated for 24 hrs by qPCR analysis. The format is functional, cell-based.
Data set [33] has as its system RPTEC. The data set is described as follows: Upregulation of COX-2 gene expression in human RPTEC cells at 26 uM incubated for 24 hrs by qPCR analysis. The format is functional, cell-based.

For `CC1(C)Oc2ccc(CC3=C(c4ccc(O)cc4)C(=O)OC3=O)cc2C[C@@H]1O`, the outcome in data set [1], in data set [2], in [3], in [5], in [6] and in data set [9] was inactive. Also, the result in data set [11] and in [15] was inactive. In addition, the Activity result in data set [4] is “Non-Toxic”; in data set [7], “Non-Toxic”; in [8] it was 52%; in [10] it was around 33%; in data set [12] it was 48%; in [13] it was 49%. Further, the Activity stood at 45% in [14], 57% in data set [16] and 47% in [17].
On to `CC1(C)Oc2ccc(CC3=C(c4ccc(O)cc4)C(=O)NC3=O)cc2C[C@@H]1O`, for which the outcome in data set [1], in [2], in data set [3], in data set [5], in [6] and in data set [9] was inactive. Besides, the outcome in data set [11] and in data set [15] was inactive. The Activity result in data set [4] is reported as “Non-Toxic”; in data set [7], “Non-Toxic”; in data set [8], 52%; in [10], around 18%; in data set [12], 39%; in data set [13], 52%. The Activity worked out at 24% in data set [14], 58% in data set [16] and 52% in data set [17]. Moreover, in data set [18], the IC50 (usually the midpoint of a concentration-inhibition curve) worked out at 0.78 µM.
For the compound `COc1ccc2c(c1)c(CC(=O)O)c(C)n2C(=O)c1ccc(Cl)cc1` [INDOMETHACIN], the Activity is 59% in [19]; 45% in data set [20]; 64% in data set [22]; 57% in data set [23]; 61% in [25]; around 38% in [26]. In addition, the Activity in [27] stood at 56%. The same compound yielded an IC50 in data set [18] of 37.5 µM. Moreover, the result in [21] and in data set [24] was inactive.
As for `CC1(C)Oc2ccc(CC3=C(c4ccc(O)cc4)C(=O)OC3=O)cc2CC1O` (stereo not given), the Activity in [28] was around 38%; in data set [4], “Non-Toxic”; in data set [7], “Non-Toxic”; in data set [29], around 20%; in data set [8], 61%; in [10], around 35%. Moreover, the Activity in data set [12] was 55%; in data set [13], 61%; in data set [14] it was 45%; in data set [16], 67%; in data set [17], 67%; in data set [30], 24%. Moreover, the result in data set [2], in data set [3], in data set [5], in data set [6], in data set [11] and in [15] was inactive.
Take `CC1(C)Oc2ccc(CC3=C(c4ccc(O)cc4)C(=O)NC3=O)cc2CC1O` (racemic): the outcome in [31], in [32] and in [33] was Active. Also, the result in data set [2], in data set [3], in data set [5], in data set [6] and in [15] was inactive. The Activity entry is listed as “Non-Toxic” in [4]; “Non-Toxic” in data set [7]; 52% in data set [8]; around 37% in data set [10]; 44% in [12]; 53% in data set [13]. The figures for the Activity in data set [14], in data set [16] and in data set [17] were 45%, 44% and 57%, respectively.
